# Results as given in ChEMBL document CHEMBL1201862, “PubChem BioAssay data set” (2004).
# Active and inactive are the calls of the source.
# Assays:
# Cytochrome P450 1A2 = biological target: T1, Cytochrome P450 1A2 (Homo sapiens, UniProt P05177);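 note: PubChem cytochrome P450 panel assay, CYP1A2 panel member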
# T1 sequence (P05177 whole entry): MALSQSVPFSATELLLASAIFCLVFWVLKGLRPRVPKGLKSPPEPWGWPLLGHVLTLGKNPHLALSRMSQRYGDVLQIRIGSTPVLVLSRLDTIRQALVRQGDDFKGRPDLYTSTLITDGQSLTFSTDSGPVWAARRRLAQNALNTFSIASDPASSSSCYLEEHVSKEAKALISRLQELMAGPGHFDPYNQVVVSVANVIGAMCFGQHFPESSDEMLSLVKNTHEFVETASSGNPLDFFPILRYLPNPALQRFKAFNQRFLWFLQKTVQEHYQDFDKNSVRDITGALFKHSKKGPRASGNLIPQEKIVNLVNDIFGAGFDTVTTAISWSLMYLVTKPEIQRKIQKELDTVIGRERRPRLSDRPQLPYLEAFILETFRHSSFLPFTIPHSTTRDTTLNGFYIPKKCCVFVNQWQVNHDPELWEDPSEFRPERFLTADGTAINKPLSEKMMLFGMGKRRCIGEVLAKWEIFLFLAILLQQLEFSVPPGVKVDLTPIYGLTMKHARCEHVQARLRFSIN
# [1] = Luminescence Cell-Based Dose Response HTS to Identify Inhibitors of 5'UTR Stem-Loop Driven Prion Protein mRNA Translation in H4 Neuroglioblastoma Cells. [Related pubchem assays: 1827 (Project Summary), 1813 (Primary HTS)]; type: functional
# [2] = luciferase reporter signal suppression in cells – H4 neuroglioma cells, luminescence, dose response (AID 1990); type: functional, cell-based
# Cytochrome P450 2C9 = Cytochrome P450 2C9 (Homo sapiens, UniProt P11712)
# Sequence of Cytochrome P450 2C9 (P11712 whole entry): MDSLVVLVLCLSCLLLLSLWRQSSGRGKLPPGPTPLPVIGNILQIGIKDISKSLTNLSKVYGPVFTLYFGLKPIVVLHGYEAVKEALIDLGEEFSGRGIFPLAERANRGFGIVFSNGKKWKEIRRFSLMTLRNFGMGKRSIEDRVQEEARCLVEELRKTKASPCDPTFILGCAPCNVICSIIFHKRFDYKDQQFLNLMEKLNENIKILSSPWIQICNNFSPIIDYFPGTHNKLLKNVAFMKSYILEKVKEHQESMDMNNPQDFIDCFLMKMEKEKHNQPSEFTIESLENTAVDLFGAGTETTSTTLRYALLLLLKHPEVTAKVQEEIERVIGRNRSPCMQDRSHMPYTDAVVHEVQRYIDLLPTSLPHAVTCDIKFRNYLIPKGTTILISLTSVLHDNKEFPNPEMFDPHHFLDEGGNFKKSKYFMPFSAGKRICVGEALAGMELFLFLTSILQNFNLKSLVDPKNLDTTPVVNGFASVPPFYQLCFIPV
# [3] = alpha-synuclein stem-loop luciferase translation blockers – H4 neuroglioma cells, luminescence, confirmation (AID 1988); type: functional, cell-based
# Cytochrome P450 2D6 = Cytochrome P450 2D6 (Homo sapiens, UniProt P10635);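 note: CYP2D6 member of a cytochrome P450 panel assay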
# Sequence of Cytochrome P450 2D6 (P10635 whole entry): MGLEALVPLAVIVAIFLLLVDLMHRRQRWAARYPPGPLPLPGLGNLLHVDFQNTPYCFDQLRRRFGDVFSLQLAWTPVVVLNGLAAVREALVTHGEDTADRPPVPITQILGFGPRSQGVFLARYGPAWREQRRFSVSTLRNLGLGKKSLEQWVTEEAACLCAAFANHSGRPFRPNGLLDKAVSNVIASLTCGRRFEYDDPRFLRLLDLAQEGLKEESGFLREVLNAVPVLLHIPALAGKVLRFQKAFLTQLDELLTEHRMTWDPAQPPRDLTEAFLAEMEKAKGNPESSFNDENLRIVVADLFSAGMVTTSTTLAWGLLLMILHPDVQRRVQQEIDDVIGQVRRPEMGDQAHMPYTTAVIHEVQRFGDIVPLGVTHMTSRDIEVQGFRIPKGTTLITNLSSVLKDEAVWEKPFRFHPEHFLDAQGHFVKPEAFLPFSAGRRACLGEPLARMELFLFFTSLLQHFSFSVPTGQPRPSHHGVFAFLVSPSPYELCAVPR
# [4] = intracellular Trypanosoma cruzi inhibitors in host cells – cell-based, plate reader, cherry-pick samples, set 3, dose response (AID 651818); type: functional;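 note: compounds incubated with infected cells for about four days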
# Streptococcus = assay: GAS UMAA2166 growth inhibition – luminescence, BacTiterGlo, counter-screen for streptokinase expression inhibitor project, dose response (AID 1915); type: functional, organism-based;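 note: potency for reduction of bacterial viability or growth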
# Streptokinase A = biological target: T2, Streptokinase A (Streptococcus pyogenes serotype M1, UniProt P10520); assay: viability-normalized secreted streptokinase activity reduction – plasminogen activation absorbance, OD405, dose response (AID 1914); type: functional, Streptococcus pyogenes M1 GAS;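 note: secreted streptokinase activity via plasminogen activation per viability signal from cell pellet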
# T2 sequence (P10520 whole entry): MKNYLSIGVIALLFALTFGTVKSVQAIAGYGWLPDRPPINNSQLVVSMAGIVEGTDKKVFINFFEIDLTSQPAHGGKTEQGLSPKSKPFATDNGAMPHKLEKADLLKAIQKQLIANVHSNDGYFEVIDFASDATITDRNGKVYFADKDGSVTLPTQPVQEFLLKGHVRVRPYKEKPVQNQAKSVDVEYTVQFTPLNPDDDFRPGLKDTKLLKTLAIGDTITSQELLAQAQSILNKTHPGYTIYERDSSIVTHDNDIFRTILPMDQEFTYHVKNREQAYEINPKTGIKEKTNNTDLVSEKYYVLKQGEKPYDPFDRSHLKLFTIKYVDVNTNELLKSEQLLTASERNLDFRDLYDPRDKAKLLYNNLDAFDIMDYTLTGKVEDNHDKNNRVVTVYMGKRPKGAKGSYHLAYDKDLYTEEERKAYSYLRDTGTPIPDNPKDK
# [5] = test system: Streptococcus sp. 'group A'; assay: Streptococcus pyogenes SK(-)GAS viability under kanamycin – luminescence, BacTiterGlo, confirmation, counter-screen for streptokinase expression inhibitor project, dose response (AID 1900); type: functional, organism-based
# [6] = Luminescence Cell-Based Dose Retest to Confirm Inhibitors of Cancer Stem Cells. [Related pubchem assays (depositor defined):AID2717, AID2721]; type: functional; settings: Homo sapiens
# [7] = biological target: T3, Replicative DNA helicase DnaB (Mycobacterium tuberculosis, UniProt P9WMR3); assay: DnaB intein splicing inhibitors, dose response, biochemical, cell-free fluorescence (AID 449749); type: functional
# T3 sequence (P9WMR3 whole entry): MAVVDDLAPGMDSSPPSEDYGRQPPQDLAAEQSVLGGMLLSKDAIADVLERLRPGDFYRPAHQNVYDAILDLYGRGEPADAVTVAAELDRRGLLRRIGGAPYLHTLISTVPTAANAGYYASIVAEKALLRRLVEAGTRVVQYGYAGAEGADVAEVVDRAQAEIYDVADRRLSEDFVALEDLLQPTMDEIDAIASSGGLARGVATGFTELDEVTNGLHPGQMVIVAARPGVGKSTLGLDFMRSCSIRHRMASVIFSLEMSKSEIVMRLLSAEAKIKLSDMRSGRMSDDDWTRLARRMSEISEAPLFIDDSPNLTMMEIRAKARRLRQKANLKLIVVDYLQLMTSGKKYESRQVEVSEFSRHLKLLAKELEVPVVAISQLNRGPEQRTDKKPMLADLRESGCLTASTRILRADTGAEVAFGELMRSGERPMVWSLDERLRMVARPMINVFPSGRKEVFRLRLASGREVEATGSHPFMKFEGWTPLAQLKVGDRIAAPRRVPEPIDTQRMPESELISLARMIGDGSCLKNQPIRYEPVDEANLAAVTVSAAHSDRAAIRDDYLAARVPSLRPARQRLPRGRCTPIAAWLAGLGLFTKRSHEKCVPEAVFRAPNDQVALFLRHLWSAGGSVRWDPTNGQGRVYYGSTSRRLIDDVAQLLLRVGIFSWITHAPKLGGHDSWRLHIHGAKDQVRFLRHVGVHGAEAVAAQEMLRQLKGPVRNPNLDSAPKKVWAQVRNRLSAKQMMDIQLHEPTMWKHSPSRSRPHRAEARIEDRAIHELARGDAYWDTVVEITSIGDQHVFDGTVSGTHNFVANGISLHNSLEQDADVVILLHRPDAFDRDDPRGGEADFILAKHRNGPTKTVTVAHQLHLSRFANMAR
# Cytochrome P450 3A4 = Cytochrome P450 3A4 (Homo sapiens, UniProt P08684);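 note: CYP3A4 tested as one member of a cytochrome P450 panel screen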
# Sequence of Cytochrome P450 3A4 (P08684 whole entry): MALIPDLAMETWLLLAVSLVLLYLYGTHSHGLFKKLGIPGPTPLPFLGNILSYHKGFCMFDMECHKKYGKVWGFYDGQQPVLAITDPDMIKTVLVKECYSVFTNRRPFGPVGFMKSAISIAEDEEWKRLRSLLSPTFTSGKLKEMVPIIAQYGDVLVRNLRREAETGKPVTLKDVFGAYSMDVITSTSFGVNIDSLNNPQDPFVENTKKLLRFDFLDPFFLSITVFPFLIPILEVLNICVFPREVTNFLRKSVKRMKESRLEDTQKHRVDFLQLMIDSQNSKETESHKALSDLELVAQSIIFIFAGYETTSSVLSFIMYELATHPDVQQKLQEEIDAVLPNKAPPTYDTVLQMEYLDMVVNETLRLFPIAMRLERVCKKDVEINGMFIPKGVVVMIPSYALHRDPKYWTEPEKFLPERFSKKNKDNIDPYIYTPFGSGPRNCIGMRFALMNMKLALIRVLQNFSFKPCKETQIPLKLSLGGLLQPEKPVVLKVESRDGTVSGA
# Protein RecA = biological target: T4, Protein RecA (Mycobacterium tuberculosis, UniProt P9WHJ3); assay: Fluorescence Cell-Free Homogeneous Dose Retest to Identify Inhibitors of RecA-Intein Splicing Activity. [Related pubchem assays (depositor defined):AID2097, AID2223, AID489010, AID492950]; type: functional
# T4 sequence (P9WHJ3 whole entry): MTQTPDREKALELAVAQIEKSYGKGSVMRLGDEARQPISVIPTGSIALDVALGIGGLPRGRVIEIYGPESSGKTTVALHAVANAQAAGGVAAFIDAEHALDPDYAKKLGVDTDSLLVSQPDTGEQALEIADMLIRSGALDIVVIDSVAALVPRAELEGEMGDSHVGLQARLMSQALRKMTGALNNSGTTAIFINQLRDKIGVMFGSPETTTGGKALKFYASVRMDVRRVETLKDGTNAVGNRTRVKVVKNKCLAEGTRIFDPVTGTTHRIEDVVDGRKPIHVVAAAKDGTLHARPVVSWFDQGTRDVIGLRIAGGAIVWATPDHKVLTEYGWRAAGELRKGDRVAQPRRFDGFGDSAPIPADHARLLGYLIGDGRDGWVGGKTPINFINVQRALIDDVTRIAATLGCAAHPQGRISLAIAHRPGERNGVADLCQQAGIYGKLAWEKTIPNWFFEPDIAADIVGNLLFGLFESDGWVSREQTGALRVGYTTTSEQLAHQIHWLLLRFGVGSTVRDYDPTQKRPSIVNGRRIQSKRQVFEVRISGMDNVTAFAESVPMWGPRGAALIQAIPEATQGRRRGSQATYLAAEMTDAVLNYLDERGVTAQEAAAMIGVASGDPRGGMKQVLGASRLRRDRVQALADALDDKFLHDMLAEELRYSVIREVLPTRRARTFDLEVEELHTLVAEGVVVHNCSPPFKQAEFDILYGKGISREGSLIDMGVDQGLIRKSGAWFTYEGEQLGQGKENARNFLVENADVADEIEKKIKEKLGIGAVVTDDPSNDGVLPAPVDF
# [8] = biological target: T5, Heat shock factor protein 1 (Mus musculus, UniProt P38532); assay: decrease of HSF1-responsive luciferase luminescence – cell-based, NIH3T3, dose retest, confirmation (AID 2382); type: functional;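 note: NIH3T3 fibroblasts with HSF1-driven luciferase reporter stressed by proteasome inhibitor MG132; luminescence from HSF1-driven luciferase expression after 8 hours of MG132 stress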
# T5 sequence (P38532 whole entry): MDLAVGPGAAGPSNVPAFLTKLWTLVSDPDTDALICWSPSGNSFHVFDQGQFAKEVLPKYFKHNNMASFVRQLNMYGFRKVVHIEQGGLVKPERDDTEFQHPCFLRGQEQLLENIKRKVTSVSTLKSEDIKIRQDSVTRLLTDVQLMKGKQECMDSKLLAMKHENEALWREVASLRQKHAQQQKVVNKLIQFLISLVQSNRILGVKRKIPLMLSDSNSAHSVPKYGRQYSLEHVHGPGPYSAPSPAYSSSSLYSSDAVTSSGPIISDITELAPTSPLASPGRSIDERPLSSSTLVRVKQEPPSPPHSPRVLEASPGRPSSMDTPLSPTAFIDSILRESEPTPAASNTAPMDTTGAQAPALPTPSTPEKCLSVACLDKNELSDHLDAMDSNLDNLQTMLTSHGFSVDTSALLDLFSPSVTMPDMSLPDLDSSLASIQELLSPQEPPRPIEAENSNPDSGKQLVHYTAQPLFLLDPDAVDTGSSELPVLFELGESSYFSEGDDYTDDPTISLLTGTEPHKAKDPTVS
# Cytochrome P450 2C19 = Cytochrome P450 2C19 (Homo sapiens, UniProt P33261); assay: Cytochrome panel assay with activity outcomes. Panel member name: p450-cyp2c19 Compounds with AC50 equal or less than 10 uM are considered active; type: functional; settings: read-out: AC50
# Sequence of Cytochrome P450 2C19 (P33261 whole entry): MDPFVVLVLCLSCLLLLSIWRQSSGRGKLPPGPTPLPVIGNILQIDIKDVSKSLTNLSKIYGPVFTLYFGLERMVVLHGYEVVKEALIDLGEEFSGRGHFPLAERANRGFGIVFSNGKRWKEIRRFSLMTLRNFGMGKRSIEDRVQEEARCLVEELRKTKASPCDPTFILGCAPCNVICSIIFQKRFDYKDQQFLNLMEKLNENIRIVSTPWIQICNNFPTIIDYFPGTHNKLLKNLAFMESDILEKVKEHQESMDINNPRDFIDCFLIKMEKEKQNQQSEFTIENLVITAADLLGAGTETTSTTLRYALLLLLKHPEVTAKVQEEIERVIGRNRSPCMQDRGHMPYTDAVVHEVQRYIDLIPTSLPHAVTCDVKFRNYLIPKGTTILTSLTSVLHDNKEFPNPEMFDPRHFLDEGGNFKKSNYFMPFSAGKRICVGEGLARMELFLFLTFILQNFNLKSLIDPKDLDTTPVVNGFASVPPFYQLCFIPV
compound,measurement,setting,value
NCCCCCc1nnc(SCc2ccccc2Cl)o1,AC50,Cytochrome P450 1A2,28.2 µM (inconclusive)
same,EC50,[1],15.7 µM (active)
same,EC50,[2],14.7 µM (active)
same,AC50,Cytochrome P450 2C9,25.1 µM (inconclusive)
same,EC50,[3],12.8 µM (active)
O=C(CSc1nnc(-c2ccco2)n1-c1ccccc1)NCc1ccco1,AC50,Cytochrome P450 2D6,14.1 µM (inconclusive)
Cc1ccc(S(=O)(=O)N(C)C[C@H]2Oc3c(NC(=O)CCCCCC(=O)Nc4ccccc4N)cccc3C(=O)N([C@H](C)CO)C[C@@H]2C)cc1,AC50,[4],1.42 µM (active)
CCCc1nc(NCc2ccccc2)c(C#N)c2c1CCCC2,EC50,Streptococcus,18.5 µM (active)
same,EC50,[1],> 120 µM (not active)
same,EC50,[2],> 120 µM (not active)
same,EC50,[3],> 120 µM (not active)
same,EC50,Streptokinase A,3.06 µM (active)
same,EC50,[5],14.9 µM (active)
COc1cccc(S(=O)(=O)NCc2ccc(C(=O)Nc3cccc(Cl)c3)cc2)c1,AC50,[6],4.31 µM (active)
C[C@@H]1CN([C@@H](C)CO)C(=O)c2cccc(N(C)C)c2O[C@@H]1CN(C)Cc1ccc(Oc2ccccc2)cc1,AC50,[4],6.65 µM (active)
CCCc1n[nH]c2c1C(c1ccncc1)C(C#N)=C(N)O2 (stereo unspecified),AC50,[7],45.8 µM (active)
same,AC50,Cytochrome P450 1A2,25.1 µM (inconclusive)
same,AC50,Cytochrome P450 3A4,39.8 µM (inconclusive)
same,EC50,Protein RecA,17.6 µM (active)
same,AC50,Cytochrome P450 2D6,25.1 µM (inconclusive)
Cc1c(C2(O)CCCCC2)[nH]c2ccc(C(F)(F)F)cc12,AC50,[6],5.63 µM (active)
CN1C(=O)/C(=C/c2cccc(Cl)c2)Sc2ccc(C(=O)NCc3cccnc3)cc21,AC50,[6],1.63 µM (active)
Cc1ccc(COc2ccccc2-c2cc(C(=O)N/N=C/c3cccnc3)[nH]n2)cc1,AC50,[6],0.778 µM (active)
c1cc(NC2CC2)nc(-c2ccoc2)n1,AC50,Cytochrome P450 2D6,39.8 µM (inconclusive)
Cc1ccc(-c2cc([C@H]3[C@@H]4C=CCC[C@@]4(C)C(=O)N3Cc3ccccc3)ccc2F)cc1,EC50,Streptococcus,18 µM (active)
same,AC50,[6],3.16 µM (active)
same,EC50,Streptokinase A,4.92 µM (active)
same,EC50,[5],5.4 µM (active)
Cc1ccc(S(=O)(=O)Nc2ccc3c(c2)CC(=O)N([C@H](C)CO)C[C@@H](C)[C@@H](CN(C)Cc2ccc(C(=O)Nc4ccccc4N)cc2)O3)cc1,AC50,[4],3.25 µM (active)
C/C(CCN1CCCCc2nc(C)c(C)cc21)=N\O[C@@H](C)c1cc(-c2c(C)cc(C)cc2C)no1,AC50,Cytochrome P450 2D6,3.16 µM (inconclusive)
O=C(Nc1ccccc1)OCc1cc(-c2ccc(Cl)cc2)on1,AC50,Cytochrome P450 2D6,3.16 µM (inconclusive)
O=C(Nc1ccc2c(c1)OCCO2)NC1(C(F)(F)F)Oc2ccccc2O1,EC50,[8],12.5 µM (active)
same,EC50,[1],> 120 µM (not active)
same,EC50,[2],> 120 µM (not active)
same,EC50,[3],> 120 µM (not active)
CC1SC(N/N=C/c2cccc([N+](=O)[O-])c2)=NC1=O (stereo unspecified),AC50,[6],2.38 µM (active)
CCN(CC)CCC(=O)Nc1ccc2c(c1)N(C(=O)CN(CC)CC)c1ccccc1CC2,AC50,Cytochrome P450 2D6,15.8 µM (inconclusive)
O=c1c(-c2cc(F)cc(F)c2)nc2cnc(N3CCNCC3)nc2n1CCc1ccccc1,AC50,Cytochrome P450 1A2,20 µM (inconclusive)
same,AC50,Cytochrome P450 2D6,20 µM (inconclusive)
Cc1ccc(CNc2nc(-c3cccs3)nc3ccccc23)cc1,AC50,[6],7 µM (active)
CCC/C=C(\CCC)C(NP(=O)(c1ccccc1)c1ccccc1)c1ccccc1 (stereo unspecified),AC50,Cytochrome P450 1A2,15.8 µM (inconclusive)
same,AC50,Cytochrome P450 2C19,20 µM (inconclusive)
same,AC50,Cytochrome P450 2C9,25.1 µM (inconclusive)
same,AC50,Cytochrome P450 2D6,39.8 µM (inconclusive)
CC(O)(CS(=O)(=O)Cc1ccc(Cl)cc1)C(=O)Nc1cccc(C(F)(F)F)c1 (stereo unspecified),AC50,Cytochrome P450 2C9,8.91 µM (inconclusive)
same,AC50,Cytochrome P450 2D6,15.8 µM (inconclusive)
O=C(Cc1ccc(-n2c(=O)[nH]c3ccccc3c2=O)cc1)N1CCN(c2cccc(Cl)c2)CC1,AC50,Cytochrome P450 1A2,17.8 µM (inconclusive)
same,EC50,[1],25.3 µM (active)
same,EC50,[2],23 µM (active)
same,EC50,[3],> 120 µM (not active)
same,AC50,Cytochrome P450 2D6,14.1 µM (inconclusive)
